Entries after “also recorded” stand apart in the source; their conditions may differ.
Columns and labels:
Type in all cases: physicochemical
[1] = Thermogravimetric Analysis (TGA); conditions: 20° C./min
Protocol: The methodology for this can be as follows. Solid compounds (˜5 mg) are placed in an aluminium pan and sealed. The instrument used for the analysis is a TA Instruments TGA 550. The same sample lots from DSC testing are used for TGA testing. Processing is completed using TRIOS software.

[2] = Chemical stability of solid state forms under temperature/humidity stress, related substances by HPLC at 252 nm; design: Impurity I / Impurity A / Impurity B / Impurity C / Impurity D / Impurity E / Impurity F / Impurity G / Impurity H: unit not given here
From the text: To do so, control samples are stored refrigerated in the presence of desiccant for the duration of the study and measured simultaneously with stressed samples by HPLC at a wavelength of 252 nm.

[3] = Dynamic Vapor Sorption (DVS) sorption isotherms, hygroscopic behaviour; conditions: for Hygroscopicity: DVS classification; for Δm (0-80%), moisture absorbed at 80% RH / Δm (0-90%), maximum water uptake: DVS, 25.0 ±1.0° C.; for Δm (0-90%), maximum water uptake: up to 90% RH; for Hysteresis: between sorption and desorption curves
Protocol: The methodology for this can be as follows. The mass of the solids is monitored as the relative humidity (RH) was deliberately changed. The RH is cycled twice from 0% to 90% to 0% in 10% steps. The temperature during measurement is kept constantly at (25.0 ±1.0° C.) Each step is held until mass stability was achieved. A camera inside the instrument captured an image at the conclusion of each stage, allowing for the observation of any visual changes in the solid form during the analysis.

[4] = Polymorphic stability of form III and form IV under stress storage, PXRD; conditions: 21 days
Protocol: A Bruker D2 Phaser X-Ray Diffractometer (XRD, EQ-SSRD-XRD-01) can be used for characterizing the samples. Raw results are evaluated using DIFFRAC.EVA (Bruker, V5.0) software. The Kα2 contribution was stripped, and a peak search was performed using peak search parameters (width 0.302 and threshold 1.0).
A test sample (approximately 0.3 g) is representatively subsampled into an agate-type mortar and pestle. Sample is ground for approximately one minute to achieve a fine homogenous powder. Sample is then transferred into a stainless-steel sample holder fitted with a zero-diffraction plate (ZDP). The sample holder is then levelled off with a glass slide to create a flat sample surface level with the sample holder.

[5] = Control 1, stored refrigerated with desiccant
[6] = Control 2, stored refrigerated with desiccant
[7] = Control 3, stored refrigerated with desiccant

C=CC(=O)NC1CCN(c2ncc3ncnc(Nc4ccc(Oc5ccc6c(c5)ncn6C)c(C)c4)c3n2)CC1 [Form IV, N-{1-[8-({3-methyl-4-[(1-methyl-1H-1,3-benzodiazol-5-yl)oxy]phenyl}amino)-[1,3]diazino[5,4-d]pyrimidin-2-yl]piperidin-4-yl}prop-2-enamide]
TGA change in mass ([1]; Decomposition): 49.938% | TGA onset ([1]; Decomposition): 420.14 °C | TGA change in mass ([1]; Small mass loss event): 1.285% | TGA end ([1]; Small mass loss event): 243.82 °C | TGA onset ([1]; Small mass loss event): 224.60 °C | TGA change in mass ([1]; Small mass loss event, listed as form IV): around 1% | Color change after stressing ([2]; 60-90° C., 3-79% RH, up to 21 days): No color changes | Impurity A ([2]; 60° C./75% RH, 17 days): 0.111 | Impurity B ([2]; 60° C./75% RH, 17 days): 0.008 | Impurity C ([2]; 60° C./75% RH, 17 days): 0.066 | Impurity D ([2]; 60° C./75% RH, 17 days): 0.014 | Impurity E ([2]; 60° C./75% RH, 17 days): 0.074 | Impurity F ([2]; 60° C./75% RH, 17 days): 0.012 | Impurity G ([2]; 60° C./75% RH, 17 days): 0.037 | Impurity H ([2]; 60° C./75% RH, 17 days): 0.132 | Impurity I ([2]; 60° C./75% RH, 17 days): 0.012 | Impurity A ([2]; 70° C./62% RH, 17 days): 0.113 | Impurity B ([2]; 70° C./62% RH, 17 days): 0.010 | Impurity C ([2]; 70° C./62% RH, 17 days): 0.065 | Impurity D ([2]; 70° C./62% RH, 17 days): 0.022 | Impurity E ([2]; 70° C./62% RH, 17 days): 0.069 | Impurity F ([2]; 70° C./62% RH, 17 days): 0.013 | Impurity G ([2]; 70° C./62% RH, 17 days): 0.038 | Impurity H ([2]; 70° C./62% RH, 17 days): 0.133 | Impurity I ([2]; 70° C./62% RH, 17 days): 0.012 | Impurity A ([2]; 75° C./41% RH, 17 days): 0.113 | Impurity B ([2]; 75° C./41% RH, 17 days): 0.010 | Impurity C ([2]; 75° C./41% RH, 17 days): 0.072 | Impurity D ([2]; 75° C./41% RH, 17 days): 0.015 | Impurity E ([2]; 75° C./41% RH, 17 days): 0.078 | Impurity F ([2]; 75° C./41% RH, 17 days): 0 | Impurity G ([2]; 75° C./41% RH, 17 days): 0.027 | Impurity H ([2]; 75° C./41% RH, 17 days): 0.129 | Impurity I ([2]; 75° C./41% RH, 17 days): 0.010 | Impurity A ([2]; 75° C./79% RH, 10 days): 0.103 | Impurity B ([2]; 75° C./79% RH, 10 days): 0.010 | Impurity C ([2]; 75° C./79% RH, 10 days): 0.065 | Impurity D ([2]; 75° C./79% RH, 10 days): 0.017 | Impurity E ([2]; 75° C./79% RH, 10 days): 0.073 | Impurity F ([2]; 75° C./79% RH, 10 days): 0.016 | Impurity G ([2]; 75° C./79% RH, 10 days): 0.038 | Impurity H ([2]; 75° C./79% RH, 10 days): 0.130 | Impurity I ([2]; 75° C./79% RH, 10 days): 0.012 | Impurity A ([2]; 80° C./11% RH, 17 days): 0.109 | Impurity B ([2]; 80° C./11% RH, 17 days): 0.009 | Impurity C ([2]; 80° C./11% RH, 17 days): 0.073 | Impurity D ([2]; 80° C./11% RH, 17 days): 0.013 | Impurity E ([2]; 80° C./11% RH, 17 days): 0.086 | Impurity F ([2]; 80° C./11% RH, 17 days): 0 | Impurity G ([2]; 80° C./11% RH, 17 days): 0.033 | Impurity H ([2]; 80° C./11% RH, 17 days): 0.126 | Impurity I ([2]; 80° C./11% RH, 17 days): 0.011 | Impurity A ([2]; 80° C./61% RH, 10 days): 0.111 | Impurity B ([2]; 80° C./61% RH, 10 days): 0.008 | Impurity C ([2]; 80° C./61% RH, 10 days): 0.065 | Impurity D ([2]; 80° C./61% RH, 10 days): 0.021 | Impurity E ([2]; 80° C./61% RH, 10 days): 0.070 | Impurity F ([2]; 80° C./61% RH, 10 days): 0.015 | Impurity G ([2]; 80° C./61% RH, 10 days): 0.039 | Impurity H ([2]; 80° C./61% RH, 10 days): 0.131 | Impurity I ([2]; 80° C./61% RH, 10 days): 0.011 | Impurity A ([2]; 90° C./3% RH, 17 days): 0.104 | Impurity B ([2]; 90° C./3% RH, 17 days): 0.011 | Impurity C ([2]; 90° C./3% RH, 17 days): 0.070 | Impurity D ([2]; 90° C./3% RH, 17 days): 0.018 | Impurity E ([2]; 90° C./3% RH, 17 days): 0.087 | Impurity F ([2]; 90° C./3% RH, 17 days): 0.008 | Impurity G ([2]; 90° C./3% RH, 17 days): 0.050 | Impurity H ([2]; 90° C./3% RH, 17 days): 0.125 | Impurity I ([2]; 90° C./3% RH, 17 days): 0.011 | Impurity A ([2]; 90° C./41% RH, 10 days): 0.112 | Impurity B ([2]; 90° C./41% RH, 10 days): 0.010 | Impurity C ([2]; 90° C./41% RH, 10 days): 0.065 | Impurity D ([2]; 90° C./41% RH, 10 days): 0.021 | Impurity E ([2]; 90° C./41% RH, 10 days): 0.076 | Impurity F ([2]; 90° C./41% RH, 10 days): 0.011 | Impurity G ([2]; 90° C./41% RH, 10 days): 0.044 | Impurity H ([2]; 90° C./41% RH, 10 days): 0.127 | Impurity I ([2]; 90° C./41% RH, 10 days): 0.012 | Impurity A ([2]; 90° C./78% RH, 17 days): 0.098 | Impurity B ([2]; 90° C./78% RH, 17 days): 0.011 | Impurity C ([2]; 90° C./78% RH, 17 days): 0.068 | Impurity D ([2]; 90° C./78% RH, 17 days): 0.015 | Impurity E ([2]; 90° C./78% RH, 17 days): 0.080 | Impurity F ([2]; 90° C./78% RH, 17 days): 0.014 | Impurity G ([2]; 90° C./78% RH, 17 days): 0.043 | Impurity H ([2]; 90° C./78% RH, 17 days): 0.125 | Impurity I ([2]; 90° C./78% RH, 17 days): 0.010 | Impurity A [2, 5]: 0.102 | Impurity B [2, 5]: 0.009 | Impurity C [2, 5]: 0.064 | Impurity D [2, 5]: 0.011 | Impurity E [2, 5]: 0.074 | Impurity F [2, 5]: 0.015 | Impurity G [2, 5]: 0.037 | Impurity H [2, 5]: 0.129 | Impurity I [2, 5]: 0.012 | Impurity A [2, 6]: 0.091 | Impurity B [2, 6]: 0.009 | Impurity C [2, 6]: 0.064 | Impurity D [2, 6]: 0.012 | Impurity E [2, 6]: 0.070 | Impurity F [2, 6]: 0.013 | Impurity G [2, 6]: 0.032 | Impurity H [2, 6]: 0.130 | Impurity I [2, 6]: 0.012 | Impurity A [2, 7]: 0.114 | Impurity B [2, 7]: 0.009 | Impurity C [2, 7]: 0.070 | Impurity D [2, 7]: 0.013 | Impurity E [2, 7]: 0.071 | Impurity F [2, 7]: 0 | Impurity G [2, 7]: 0.023 | Impurity H [2, 7]: 0.129 | Impurity I [2, 7]: 0.012 | Increase in related substances ([2]; accelerated stress conditions, up to 21 days at 90° C./78% RH): no significant increase in any related substance | Chemical stability in the solid state ([2]; up to 21 days at 90° C./78% RH): chemically very stable | Change in visual appearance during the humidity cycles ([3]; DVS camera images): No change in the visual appearance | Hygroscopicity [3]: slightly hygroscopic | Hygroscopicity ([3]; listed as form IV): slightly hygroscopic | Δm (0-80%), moisture absorbed at 80% RH [3]: 0.4 wt % | Δm (0-80%), moisture absorbed at 80% RH ([3]; listed as form IV): 0.4 wt % | Δm (0-90%), maximum water uptake [3]: 0.5 wt % | Δm (0-90%), maximum water uptake ([3]; listed as form IV): 0.5 wt % | Phase change during DVS experiment ([3]; RH cycled twice 0% to 90% to 0%): no indication of irreversible phase conversion or hydrate formation; also recorded: no irreversible phase changes | Hysteresis [3]: no | Hysteresis ([3]; listed as form IV): lack of hysteresis | Polymorphic stability by PXRD ([4]; open storage 90° C./3% RH): stable and conformed to form IV reference standard; also recorded: neither form underwent phase changes | Polymorphic stability by PXRD ([4]; open storage 90° C./78% RH): stable and conformed to form IV reference standard; also recorded: neither form underwent phase changes
